Measured values published in US11090304B2 (Amgen Inc., priority 2018, dated 2021).

Target: GDP-bound KRAS protein (aa 1-169), containing both G12C and C118A amino acid substitutions (Homo sapiens, UniProt P01116, C118A/G12C)
Test: Coupled nucleotide exchange assay (SOS-mediated, AlphaScreen)
Type: biochemical
Settings: for Coupled exchange IC50 (5 min): 5 min compound pre-incubation

GDP-bound KRAS protein (aa 1-169), containing both G12C and C118A amino acid substitutions, sequence (P01116 1-169 isoform P01116-2 G12C/C118A): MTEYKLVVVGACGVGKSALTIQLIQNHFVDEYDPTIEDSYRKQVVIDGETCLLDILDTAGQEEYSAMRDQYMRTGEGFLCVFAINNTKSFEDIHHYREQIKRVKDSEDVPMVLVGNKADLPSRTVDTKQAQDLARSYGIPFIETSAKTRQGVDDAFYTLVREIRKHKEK

Compound	Coupled exchange IC50 (5 min)	Coupled exchange IC50 (2 h) (2 h compound pre-incubation)
C=CC(=O)N1CCN(c2nc(=O)n(-c3ccccc3N3CCOCC3)c3nc(-c4c(O)cccc4F)c(Cl)cc23)[C@@H](C)C1 [Example 54-100, 6-chloro-7-(2-fluoro-6-hydroxyphenyl)-4-((2S)-2-methyl-4-(2-propenoyl)-1-piperazinyl)-1-(2-(4-morpholinyl)phenyl) pyrido[2,3-d] pyrimidin-2(1H)-one]	2.51 | nda μM	–
C=CC(=O)N1CCN(c2nc(=O)n(-c3c(CC)ncnc3CC)c3nc(-c4ccccc4F)c(F)cc23)[C@@H](C)C1 [Example 58-22, 1-(4,6-diethyl-5-pyrimidinyl)-6-fluoro-7-(2-fluorophenyl)-4-((2S)-2-methyl-4-(2-propenoyl)-1-piperazinyl)pyrido[2,3-d]pyrimidin-2(1H)-one]	2.71 | nda μM	–
C=CC(=O)N1CCN(c2nc(=O)n(-c3ccccc3C(C)(C)C)c3nc(-c4c(O)cccc4F)c(F)cc23)[C@@H](C)C1 (single isomer, unassigned) [Example 58-1-1]	5.95 | nda μM	–
C=CC(=O)N1CCN(c2nc(=O)n(-c3ccccc3C(F)(F)F)c3cc(-c4ccccc4F)c(Cl)cc23)[C@@H](C)C1 [Example 93, 6-Chloro-7-(2-fluorophenyl)-4-((2S)-2-methyl-4-(2-propenoyl)-1-piperazinyl)-1-(2-(trifluoromethyl)phenyl)-2(1H)-quinazolinone]	1.59 | nda μM	–
C=CC(=O)N1CCN(c2nc(=O)n(-c3c(C)ccnc3C(C)C)c3nc(-c4ccccc4F)c(Cl)cc23)C2(CC2)C1 (single isomer, unassigned) [Example 78-4, (M)-6-chloro-7-(2-fluorophenyl)-1-(4-methyl-2-(2-propanyl)-3-pyridinyl)-4-(7-(2-propenoyl)-4,7-diazaspiro[2.5]octan-4-yl)pyrido[2,3-d]pyrimidin-2(1H)-one]	30.3 | nda μM	–
C=CC(=O)N1CCN(c2nc(=O)n(-c3ccccc3C(C)C)c3nc(-c4ccc(F)cc4O)c(Cl)cc23)[C@@H](C)C1 (single isomer, unassigned) [Example 54-77-1]	2.71 | nda μM	–
C=CC(=O)N1C[C@H](C)N(c2nc(=O)n(-c3c(C)ccnc3C(C)C)c3nc(Cl)c(Cl)cc23)[C@@H](C)C1 (atropisomer, axis not shown; (M)) [Example 73-14, (M)-6,7-dichloro-4-((2S,6S)-2,6-dimethyl-4-(2-propenoyl)-1-piperazinyl)-1-(4-methyl-2-(2-propanyl)-3-pyridinyl)pyrido[2,3-d]pyrimidin-2(1H)-one]	0.711 | nda μM	–
C=CC(=O)N1C[C@H](C)N(c2nc(=O)n(-c3c(C)ccnc3C(C)C)c3nc(Cl)c(F)cc23)[C@@H](C)C1 (atropisomer, axis not shown; (M)) [Example 72-12, (M)-7-chloro-4-((2S,6S)-2,6-dimethyl-4-(2-propenoyl)-1-piperazinyl)-6-fluoro-1-(4-methyl-2-(2-propanyl)-3-pyridinyl)pyrido[2,3-d]pyrimidin-2(1H)-one]	4.51 | nda μM	–
C=CC(=O)N1CCN(c2nc(=O)n(-c3ccccc3C(C)C)c3nc(-c4ccccc4F)c(OC)nc23)[C@@H](C)C1 [Example 109, 7-(2-Fluorophenyl)-6-methoxy-4-((2S)-2-methyl-4-(2-propenoyl)-1-piperazinyl)-1-(2-(2-propanyl)phenyl)-2(1H)-pteridinone]	1.32 | nda μM	–
C=CC(=O)N1CCN(c2nc(=O)n(-c3c(C4CC4)ccnc3C)c3nc(-c4ccccc4F)c(F)cc23)[C@@H](C)C1 [Example 58-20, 1-(4-cyclopropyl-2-methyl-3-pyridinyl)-6-fluoro-7-(2-fluorophenyl)-4-((2S)-2-methyl-4-(2-propenoyl)-1-piperazinyl)pyrido[2,3-d]pyrimidin-2(1H)-one]	1.96 | nda μM	–
C=CC(=O)N1CCN(c2nc(=O)n(-c3c(C)cccc3C(C)C)c3nc(-c4nc(N)ccc4Cl)c(F)cc23)[C@@H](C)C1 (single isomer, unassigned) [Example 71-1-2]	4.89 | nda μM	–
C=CC(=O)N1CCN(c2nc(=O)n(-c3ccccc3C3(C(F)(F)F)CC3)c3nc(-c4c(O)cccc4F)c(F)cc23)[C@@H](C)C1 (single isomer, unassigned) [Example 59-1-1]	11.8 | nda μM	–
C=CC(=O)N1CCN(c2nc(=O)n(-c3ccccc3C(C)C)c3nc(-c4cc(O)ccc4F)c(Cl)cc23)[C@@H](C)C1 (single isomer, unassigned) [Example 54-88-2]	1.36 | nda μM	–
C=CC(=O)N1CCN(c2nc(=O)n(-c3ccccc3C(F)(F)F)c3cc(Br)c(Cl)cc23)CC1 [Example 128, 7-Bromo-6-chloro-4-(4-(2-propenoyl)-1-piperazinyl)-1-(2-(trifluoromethyl)phenyl)-2(1H)-quinazolinone]	–	nda | 18 μM
C=CC(=O)N1CCN(c2nc(=O)n(-c3cncnc3C(C)(C)C)c3nc(-c4ccccc4F)c(Cl)cc23)[C@@H](C)C1 (single isomer, unassigned) [Example 54-110-1]	7.71 | nda μM	–
C=CC(=O)N1CCN(c2nc(=O)n(-c3ccccc3C(C)C)c3cc(-c4ccccc4F)c(Cl)nc23)[C@@H](C)C1 (single isomer, unassigned) [Example 110-1]	3.22 | nda μM	–
C=CC(=O)N1CCN(c2nc(=O)n(-c3ccccc3C(C)C)c3nc(-c4ncccc4F)c(Cl)cc23)[C@@H](C)C1 [Example 54-92, 6-chloro-7-(3-fluoro-2-pyridinyl)-4-((2S)-2-methyl-4-(2-propenoyl)-1-piperazinyl)-1-(2-(2-propanyl)phenyl)pyrido [2,3-d]pyrimidin-2(1H)-one]	1.27 | nda μM	–
C=CC(=O)N1CCN(c2nc(=O)n(-c3c(CC)cccc3CC)c3nc(N4CC[C@H](C)C4)c(Cl)cc23)[C@@H](C)C1 [Example 66-5, 6-chloro-1-(2,6-diethylphenyl)-4-((2S)-2-methyl-4-(2-propenoyl)-1-piperazinyl)-7-((3S)-3-methyl-1-pyrrolidinyl)pyrido[2,3-d]pyrimidin-2(1H)-one]	21.2 | nda μM	–
C=CC(=O)N1CCN(c2nc(=O)c(-c3ccccc3C)c3cc(-c4ccccc4F)c(C)nn23)[C@@H](C)C1 [77-2, 3-(2-fluorophenyl)-2-methyl-5-(2-methylphenyl)-8-((2S)-2-methyl-4-(2-propenoyl)-1-piperazinyl)-6H-pyrimido[1,6-b]pyridazin-6-one]	77.7 | nda μM	–
C=CC(=O)N1CCN(c2nc(=O)n(-c3nccnc3C(C)C)c3nc(-c4ccccc4F)c(Cl)cc23)[C@@H](C)C1 [Example 54-20]	2.26 | nda μM	–
C=CC(=O)N1CCN(c2nc(=O)n(-c3c(C)ccnc3C(C)C)c3nc(-c4c(O)cccc4F)c(C)cc23)[C@@H](C)C1 (single isomer, unassigned) [Example 74-3-2]	1.12 | nda μM	–
C=CC(=O)N1CCN(c2nc(=O)n(-c3c(C)ccnc3C3CC3)c3nc(-c4ccccc4F)c(F)cc23)[C@@H](C)C1 [Example 57-18, 1-(2-cyclopropyl-4-methyl-3-pyridinyl)-6-fluoro-7-(2-fluorophenyl)-4-((2S)-2-methyl-4-(2-propenoyl)-1-piperazinyl)pyrido[2,3-d]pyrimidin-2(1H)-one]	1.73 | nda μM	–
